Measurements from patent US20220106289A1, “NLRP3 INHIBITORS” (INFLAZOME LIMITED, priority 2018, published 2022).
Where a name gives a salt, the structure may show the parent alone.

Molecular target: NLRP3 (Homo sapiens, UniProt Q96P20)
Test: THP-1 cells pyroptosis assay (LPS + nigericin, resazurin read-out)
Format: cell-based
Parameters: Seed THP-1 cells (25,000 cells/well) containing 1.0 μg/ml LPS; host or cells: THP-1 cells
Details: NLRP3 inhibitory activity, 1 μg/ml LPS, 5 μM nigericin
Method: The cells were routinely passaged and grown to confluency (˜10^6 cells/ml). On the day of the experiment, THP-1 cells were harvested and resuspended into RPMI medium (without FBS). The cells were then counted and viability (>90%) checked by Trypan blue (Sigma #T8154). […] To this diluted cell solution was added LPS (Sigma #L4524) to give a 1 μg/ml Final Assay Concentration (FAC). 40 μl of the final preparation was aliquoted into each well of a 96-well plate. The plate thus prepared was used for compound screening. The following method step-by-step assay was followed for compound screening. • 1. […] Incubate for 3 hrs at 37° C., 5% CO2 • 4. Add 5 μl nigericin (Sigma #N7143) (FAC 5 μM) to all wells • 5. Incubate for 1 hr at 37° C., 5% CO2 • 6. At the end of the incubation period, spin plates at 300×g for 3 mins and remove supernatant • 7. Then add 50 μl of resazurin (Sigma #R7017) (FAC 100 μM resazurin in RPMI medium without FBS) and incubate plates for a further 1-2 hrs at 37° C. and 5% CO2 • 8.

Chain of NLRP3 (Q96P20 whole entry): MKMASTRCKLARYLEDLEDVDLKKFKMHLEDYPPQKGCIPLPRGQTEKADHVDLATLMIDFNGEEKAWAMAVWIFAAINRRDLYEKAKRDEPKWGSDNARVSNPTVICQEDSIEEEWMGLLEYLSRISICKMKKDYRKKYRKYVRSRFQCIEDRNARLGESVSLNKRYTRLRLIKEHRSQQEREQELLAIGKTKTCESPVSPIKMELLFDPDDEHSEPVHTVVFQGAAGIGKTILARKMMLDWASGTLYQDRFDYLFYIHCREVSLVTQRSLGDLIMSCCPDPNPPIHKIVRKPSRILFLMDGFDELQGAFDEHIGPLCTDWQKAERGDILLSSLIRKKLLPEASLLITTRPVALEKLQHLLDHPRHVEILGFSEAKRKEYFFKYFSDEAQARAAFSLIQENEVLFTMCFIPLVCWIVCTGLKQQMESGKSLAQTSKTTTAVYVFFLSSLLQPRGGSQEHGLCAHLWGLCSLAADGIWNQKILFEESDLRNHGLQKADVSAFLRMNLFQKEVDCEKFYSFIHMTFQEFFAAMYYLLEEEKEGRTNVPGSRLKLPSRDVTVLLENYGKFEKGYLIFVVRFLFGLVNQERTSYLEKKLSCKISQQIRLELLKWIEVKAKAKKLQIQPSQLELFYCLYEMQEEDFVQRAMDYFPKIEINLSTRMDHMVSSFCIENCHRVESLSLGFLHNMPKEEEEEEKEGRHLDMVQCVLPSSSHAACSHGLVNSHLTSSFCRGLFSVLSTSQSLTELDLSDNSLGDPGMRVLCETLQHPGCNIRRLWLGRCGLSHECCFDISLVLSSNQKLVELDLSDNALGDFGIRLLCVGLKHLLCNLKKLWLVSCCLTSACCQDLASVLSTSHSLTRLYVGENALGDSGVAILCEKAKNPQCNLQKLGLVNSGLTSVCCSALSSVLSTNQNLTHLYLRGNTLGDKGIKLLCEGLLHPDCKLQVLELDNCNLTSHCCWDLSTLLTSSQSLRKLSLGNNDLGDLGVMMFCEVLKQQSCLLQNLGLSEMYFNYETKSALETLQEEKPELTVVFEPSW

CC(C)(O)c1coc(S(=O)(=O)NC(=O)Cc2cc(Cl)cc(C(F)(F)F)c2)c1 [Example 92, 2-(3-Chloro-5-(trifluoromethyl)phenyl)-N-((4-(2-hydroxypropan-2-yl)furan-2-yl)sulfonyl)acetamide] was tested, and the IC50 was 5 to 10 µM.
For CC(C)c1cc(C#N)cc(C(C)C)c1NC(=O)NS(=O)(=O)c1cnn(C(C)C)c1 [Example 75, N-((4-Cyano-2,6-diisopropylphenyl)carbamoyl)-1-isopropyl-1H-pyrazole-4-sulfonamide], the IC50 was 1 to 5 µM.
For CC(C)c1cc(F)cc(C(C)C)c1CC(=O)NS(=O)(=O)c1cc(C(C)(C)O)n(C)n1 [Example 32, 2-(4-Fluoro-2,6-diisopropylphenyl)-N-((5-(2-hydroxypropan-2-yl)-1-methyl-1H-pyrazol-3-yl)sulfonyl)acetamide, ammonium salt], the IC50 was 1 to 5 µM.
Molecule CC(O)c1cc(S(=O)(=O)NC(=O)Nc2c3c(cc4c2CCC4)CCC3)nn1C (stereo not shown) [Example 74, N-((1,2,3,5,6,7-Hexahydro-s-indacen-4-yl)carbamoyl)-5-(1-hydroxyethyl)-1-methyl-1H-pyrazole-3-sulfonamide] has an IC50 of 0.5 to 1 µM.
With COc1cc(-c2cc(F)cc(C(C)C)c2CCC(=O)NS(=O)(=O)c2ccc(CN(C)C)cc2)ccn1 [Example 4, N-((4-((Dimethylamino)methyl)phenyl)sulfonyl)-3-(4-fluoro-2-isopropyl-6-(2-methoxypyridin-4-yl)phenyl)propanamide, potassium salt] the IC50 was 5 to 10 µM.
Cc1cc(C(C)(C)O)ccc1S(=O)(=O)NC(=O)C1CC(C)(C)c2cc(F)cc(C(C)C)c21 (stereo not shown) [Example 1, 5-Fluoro-N-((4-(2-hydroxypropan-2-yl)-2-methylphenyl)sulfonyl)-7-isopropyl-3,3-dimethyl-2,3-dihydro-1H-indene-1-carboxamide] gave an IC50 of 5 to 10 µM.
CC(C)(C)OC(=O)NC/C(=C\F)COc1ccc(S(=O)(=O)NC(=O)Nc2c3c(cc4c2CCC4)CCC3)cc1 [Example 18, tert-Butyl-(3-fluoro-2-((4-(N-((1,2,3,5,6,7-hexahydro-s-indacen-4-yl)carbamoyl)sulfamoyl)phenoxy)methyl)allyl)carbamate, potassium salt] showed an IC50 of 1 to 5 µM.
Molecule CC(C)c1cc(F)cc(C(C)C)c1CC(=O)NS(=O)(=O)c1cnc(C(C)(C)O)s1 [Example 27, 2-(4-Fluoro-2,6-diisopropylphenyl)-N-((2-(2-hydroxypropan-2-yl)thiazol-5-yl)sulfonyl)acetamide] has an IC50 of 1 to 5 µM.
Work on CC(C)c1cccc(C(C)C)c1NC(=O)NS(=O)(=O)c1ccn(C(C)C)n1 [Example 68, N-((2,6-Diisopropylphenyl)carbamoyl)-1-isopropyl-1H-pyrazole-3-sulfonamide, sodium salt] yielded an IC50 of 1 to 5 µM.
With CC(C)c1cc(F)cc2c1C(C(=O)NS(=O)(=O)c1cnn(C3CC3)c1)CC2(C)C (stereo not shown) [Example 7, N-((1-Cyclopropyl-1H-pyrazol-4-yl)sulfonyl)-5-fluoro-7-isopropyl-3,3-dimethyl-2,3-dihydro-1H-indene-1-carboxamide] the IC50 was 5 to 10 µM.
